# Experimental data: patent US20090214696A1, “Lycopene Incorporation Into Egg Yolks” (priority 2005, published 2009)
# Like-named read-outs stand apart in the source and are kept apart here.
# How the values were obtained:
# [1] = Roche yolk color score of eggs from hens fed lycopene (Example 1 trial); format: in vivo, White Leghorn laying hens; conditions: 65, 257 or 650 mg lycopene/kg diet vs 0 mg, 15 days, p<0.05
# Text: (§1) The purpose of this trial was to examine the ability of the laying hen to deposit lycopene into the egg yolk for the purpose of supplementing human diets with additional lycopene. Control egg-laying hens were fed a 100 gram per bird basal diet for 15 days described in Table 1. Test hens were fed the basal diet supplemented with varying amounts of lycopene.
# The California Polytechnic State University Animal Care and Use Committee approved all protocols. Using a completely randomized design, first-cycle White Leghorn (Hyline W36 strain, 23 wks old) laying hens from the Cal Poly University flock were randomly assigned to one of three dietary lycopene levels. Birds were fed a basal diet formulated to meet or exceed all nutrient requirements for laying hens (National Research Council 1994 Nutrient requirements of Poultry, Ninth Revised Edition, National Academy Press, Washington, D.C.) plus either 0, 65, 257, or 650 mg lycopene/kg diet; the lycopene provided was the all-trans isomer. Dietary levels were chosen based on the amount of lycopene contained in an uncooked 100 g tomato, as well as data concerning the absorption of lutein by laying hens (Leeson, S. and Caston, L. 2004 Poultry Science 83:1709-1712). Lycopene was supplied in a 5% powder form attached to a gelatin molecule. […]
# [2] = Yolk lycopene concentration by HPLC in eggs from hens fed lycopene (Example 1 trial); format: in vivo, White Leghorn laying hens
# Text: as §1
# The California Polytechnic State University Animal Care and Use Committee approved all protocols. Using a completely randomized design, first-cycle White Leghorn (Hyline W36 strain, 23 wks old) laying hens from the Cal Poly University flock were randomly assigned to one of three dietary lycopene levels. Birds were fed a basal diet formulated to meet or exceed all nutrient requirements for laying hens (National Research Council 1994 Nutrient requirements of Poultry, Ninth Revised Edition, National Academy Press, Washington, D.C.) plus either 0, 65, 257, or 650 mg lycopene/kg diet; the lycopene provided was the all-trans isomer. Dietary levels were chosen based on the amount of lycopene contained in an uncooked 100 g tomato, as well as data concerning the absorption of lutein by laying hens (Leeson, S. and Caston, L. 2004 Poultry Science 83:1709-1712). Lycopene was supplied in a 5% powder form attached to a gelatin molecule. In order for lycopene to be absorbed from this source, water (60° C.) was used to disperse the lycopene prior to dietary addition.
# Hens were housed in commercial-type cages (n=3 cages/diet, 4 birds/cage, 135 sq. inches/bird) with ad libitum access to water. Hens were fed their assigned diets at 100 g/bird*day for 15 days. Eggs were gathered daily, and after 15 days of dietary feeding, analysis of egg lycopene levels were completed by Roche color score (a standardized set of color swatches corresponding to a number from 1-15) and by HPLC analysis (DSM International, Basel Switzerland).
# [3] = Study 1: Roche color fan of egg yolks; format: in vivo, second cycle laying hens (Hyline W36); conditions: 0, 1.0 and 5.7 mg lycopene/bird*day, after 18 d
# [4] = Study 2: Roche Yolk Colour Fan; format: in vivo, Second Cycle Hyline W36 Hens; conditions: 880 or 5140 mg lycopene/kg diet or 7.8 mg Lutein/kg diet dispersed in H2O, 19 d
# Text: (§2) Commercial laying hen diet (corn, soybean, from NuWest) was supplemented with lycopene and lutein (DSM). Second Cycle Hyline W36 Hens were housed in standard lay cages. Dependant Variables: Yolks and Plasma. Lipid Extraction was done as previously described (Koutsos at al. 2003 J Nutr 133:1132-1138). A UV/VIS spectrophotometer was use to measure absorbance at 464 nm for Lutein and 352 nm for Lycopene. For Studies 2 and 3, the Roche Colour Score was taken of egg yolks using a blind analysis. The following statistics were calculated: ANOVA for main effect of diet+days on diet and interactions and t-test for differences between means. Results were significant at p<0.05.
# (§3) In Study 2, 5 hens were housed per cage and 3 cages were given treatment for 19 d on a diet at 100 g diet/bird*d. Lycopene and Lutein levels were increased and dispersed in H2O: Diet 1: Negative Control+3000 ml H2O; Diet 2: Negative Control+880 mg lycopene/kg diet +3000 ml H2O; Diet 3: Negative Control+5140 mg lycopene/kg diet+3000 ml H2O; Diet 4: Negative Control+7.8 mg Lutein/kg diet+3000 ml H2O. The Roche Yolk Colour Fan was used (FIG. 4, 5). […] Diet had no effect on Yolk Lutein and/or Lycopene (p>0.20 for all). Diet on Plasma lycopene had no effect (p=0.17). Plasma Lutein+Lycopene had no effect (p=0.07). Diet on Plasma Lutein: (p=0.04).
# [5] = Study 2: yolk and plasma lycopene/lutein by UV/VIS spectrophotometer; format: in vivo, Second Cycle Hyline W36 Hens
# Text: as §2, §3
# [6] = Study 3: Roche Yolk Colour Fan; format: in vivo, Second Cycle Hyline W36 Hens; conditions: control diet vs diets >1285 mg Lycopene, 15 d
# Text: as §2
# (§4) In Study 3, 5 hens were housed per cage and 1 cage received treatment for 15 d on diet at 100 g diet/bird*d. Lycopene levels were increased and dispersed in H2O: Diet 1: Negative Control+3000 ml H2O; Diet 2: Negative Control+880 mg lycopene/kg diet+3000 ml H2O; Diet 3: Negative Control+1285 mg lycopene/kg diet+3000 ml H2O; Diet 4: Negative Control +2570 mg lycopene/kg diet+3000 ml H2O; Diet 5: Negative Control+3855 mg lycopene/kg diet+3000 ml H2O; Diet 6: Negative Control+5140 mg lycopene/kg diet+3000 ml H2O; Diet 7: Negative Control+6425 mg lycopene/kg diet+3000 ml H2O; Diet 8: Diet 5+7.8 mg Lutein/kg diet; Diet 9: Diet 7+7.8 mg Lutein/kg diet.
# [7] = Study 3: yolk and plasma lycopene/lutein by UV/VIS spectrophotometer; format: in vivo, Second Cycle Hyline W36 Hens
# Text: as §2, §4
# [8] = acute toxicity, mice; cited from earlier work
# [9] = acute toxicity, rats; cited from earlier work
# [10] = Study 1: yolk and plasma lycopene/lutein by UV/VIS spectrophotometer; format: in vivo, second cycle laying hens (Hyline W36); conditions: Diet 4: 48 mg lycopene + 6.5 mg Lutein/kg diet, 19 d
# Description: Lycopene is a carotenoid with potential anti-cancer functions. […] Therefore, second cycle laying hens (Hyline W36) were examined for their ability to absorb dietary lycopene and incorporate lycopene into egg yolks. A completely randomized design was used in which 3 levels of dietary lycopene (0, 1.0 and 5.7 mg/bird*day) or lycopene +lutein (5.7 mg lycopene+0.8 mg lutein/bird*day) were incorporated into the birds normal diet. Birds were housed in commercial cages with ad libitum access to water (n=3 cages/diet; 5 birds/cage), and were fed 120 g diet/bird*day. […] Future trials will examine increased dietary lycopene levels and routes of administration.
# as §2, with “p<0.05. […]” for “p<0.05.”
# [11] = egg vs vegetable sources; cited from earlier work
Yolk lutein ([10]; p<0.05),Plasma lutein ([10]; p=0.36),"Yolk lutein ([5]; effect of diet, Study 2, p>0.20)",SMILES,Roche yolk color score [1],"Yolk lycopene levels (HPLC) ([2]; 257 or 650 mg lycopene/kg diet vs 65 mg/kg diet, 15 days, p<0.05)","concentration at 15 days ([2]; female, White Leghorn (Hyline W36), chicken (laying hen), egg yolk, oral, based upon HPLC data, large egg, read-out: Maximal concentration of yolk lycopene (converted))",Dietary level for optimal lycopene incorporation into egg (regression analysis) ([2]; regression of yolk lycopene on dietary lycopene),Egg yolk pigmentation (Roche color fan) [3],Roche Colour Fan score [4],Plasma Lutein+Lycopene ([5]; in vivo),Plasma lycopene ([5]; in vivo),Yolk Lycopene ([5]; in vivo),Yolk pigment (Roche color scores) [6],"Yolk Lycopene ([7]; effect of diet, Study 3, p<0.01, Diets 2, 3 = 880, 1285 mg lycopene/kg diet)","Yolk Lutein+Lycopene ([7]; effect of diet, Study 3, p=0.94)",Plasma Lutein and/or Lycopene ([7]; in vivo),LD50 [8],LD50 [9],Absorbance from egg relative to absorbance from vegetable sources [11]
–,–,–,CC(C)=CCC/C(C)=C/C=C/C(C)=C/C=C/C(C)=C/C=C/C=C(C)/C=C/C=C(C)/C=C/C=C(\C)CCC=C(C)C [lycopene],significantly greater yolk color score,significantly greater lycopene levels,4710 ng/g,420 mg/kg diet,no detectable change in pigmentation,5140 mg>0 mg,no effect,no effect,no effect,consistent difference in yolk pigment,"Diet 2, 3>1, 4, 5, 6, 8, 9",no effect,no effect,3000 mg lycopene/kg body weight,"10,000 mg/kg body weight",–
increased,no increase,no effect,CC1=C[C@H](O)CC(C)(C)[C@H]1/C=C/C(C)=C/C=C/C(C)=C/C=C/C=C(C)/C=C/C=C(C)/C=C/C1=C(C)C[C@@H](O)CC1(C)C [lutein],–,–,–,–,–,no effect,–,–,–,–,–,–,–,–,–,approximately 2.12 times
